Data taken from BindingDB's records for doi:10.1016/s0960-894x(02)00941-1 (Bristol-Myers Squibb Pharmaceuticals, 2003).

Molecular target: T1, Tumor necrosis factor receptor superfamily member 1A (Homo sapiens, UniProt P19438)
T1 sequence (P19438 whole entry): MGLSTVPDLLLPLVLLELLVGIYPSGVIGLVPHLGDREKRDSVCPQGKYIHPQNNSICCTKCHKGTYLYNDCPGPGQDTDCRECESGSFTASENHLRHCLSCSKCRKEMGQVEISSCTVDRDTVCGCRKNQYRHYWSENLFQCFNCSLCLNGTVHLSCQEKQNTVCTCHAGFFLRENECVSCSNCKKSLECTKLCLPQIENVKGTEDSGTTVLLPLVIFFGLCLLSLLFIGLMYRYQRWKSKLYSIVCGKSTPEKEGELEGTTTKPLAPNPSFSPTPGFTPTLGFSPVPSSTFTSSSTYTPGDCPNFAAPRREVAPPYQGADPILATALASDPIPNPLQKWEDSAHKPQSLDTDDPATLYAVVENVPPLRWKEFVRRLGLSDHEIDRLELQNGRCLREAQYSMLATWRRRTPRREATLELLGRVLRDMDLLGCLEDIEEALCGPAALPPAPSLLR
Assay: ChEBML_212214
Excerpt: Inhibition of TNF-alpha binding to TNFRc1

Row | Structure (SMILES) | IC50
1 | C=CCn1c(S)c2c(=C)c3c(OC)cc(OC)cc3n2c1=O [2-Allyl-6,8-dimethoxy-9-methyl-1-thioxo-1,2-dihydro-imidazo[1,5-a]indol-3-one] | 210 nM
2 | C=CCn1c(S)c2c(=C)c3c(OC)cc(OC)cc3n2c1=S [2-Allyl-6,8-dimethoxy-9-methyl-imidazo[1,5-a]indole-1,3-dithione] | 210 nM
